In patent US20170175081A1, “Methods of Obtaining Islet Cells” (The University Court of the University of Aberdeen, priority 2014, published 2017):

What was measured:
[1] = tested on: islet enriched pancreatic cells; assay: Ad-KLF4 with and without Rho-kinase inhibitor Y27632, gene expression; assay type: cell-based, human; conditions: Y27632 20 uM; up to 10 days post infection
Protocol: FIG. 11. […] A one-way ANOVA was performed with Dunnett post hoc test comparing treatment groups. […] B: Samples were fixed and permeabilised at day 6 for E-cadherin and cleaved caspase-3.
Total RNA was extracted using TRIzol® and treated with DNaseI (both Life Technologies) followed by cDNA synthesis using 1 μg of RNA per sample. qRT-PCR mixtures were prepared using SensiMix II probe kit (Bioline, London, UK) and TaqMan gene expression assays (Applied Biosystems, Paisley, UK) as per manufacturer's instructions. cDNA was amplified on Roche LightCycler 480® for 50 cycles. Samples were run in triplicate and normalised to glyceraldehyde 3-phosphate dehydrogenase (GAPDH) and/or 60S ribosomal protein L13a (RPL13a). Data was analysed using the 2^−ΔΔCT method (Brodsky et al., 1999). Statistical analysis was performed using GraphPad Prism software and the Student t test or one-way/two-way ANOVA, followed by the Dunnett post hoc test, were used as appropriate.
We next hypothesised that adjusting the cell culture environment to promote survival of newly formed epithelial cells would enhance redifferentiation.

[2] = tested on: reprogrammed human exocrine pancreatic cells; assay: RT-qPCR of cells reprogrammed (siARX) with or without zinc; assay type: cell-based; conditions: ZnCl2 10 μM; partly attributed to increased PAX4 mRNA
Protocol: FIG. 18. RT-qPCR analysis of the three main endocrine hormones insulin (INS), glucagon (GCG) and somatostatin (SST) and the transcription factors PDX1, PAX4, MAFA, NEUROD, NGN3 and NKX6.1 in untreated (N/A) or cells reprogrammed (siARX) in the absence or presence of ZnCl2 (10 μM). Expression was normalised to glyceraldehyde 3-phosphate dehydrogenase. Data are representative of triplicate experiments and represented as mean+/−standard error of the mean.
Human exocrine fractions were thawed and plated on tissue culture 9 cm^2 dishes (Greiner, Stonehouse, UK) and cultured for two days in RPMI 1640 (Gibco, Life Technologies) supplemented with 10% foetal bovine serum (FBS), 10 mM HEPES, 1 mM sodium pyruvate (all from Gibco) and 75 μM β-mercaptoethanol (Sigma Aldrich). After 48 h, the cells were incubated for another 72 h in serum free medium (SFM) prepared with RPMI 1640, insulin-transferrin-selenium (Gibco) and 1% bovine serum albumin (Sigma), supplemented with 10 μM SB431542, 2 μM Y27632, 1 μM 5-Aza-2′deoxycytidine and 10 mM sodium butyrate (all from Sigma). On the next day the cells were incubated for 4 h with the adenoviruses encoding pancreatic transcription factors PDX1, MAFA, NGN3 and PAX4. On the following day the medium was changed for SFM supplemented with 1 nM betacellulin (R&D systems, Abingdon, UK), 10 nM exendin-4 and 10 mM nicotinamide (both from Sigma). […]

[3] = tested on: reprogrammed human exocrine pancreatic cells; assay: C-peptide ELISA of cell extracts, reprogrammed (siARX) with or without ZnCl2; assay type: cell-based; conditions: ZnCl2 10 μM; p<0.01 relative to siARX
Protocol: FIG. 19. C-peptide ELISA measurements of cell extracts from untreated cells (N/A) or cells reprogrammed (siARX) in the absence or presence of ZnCl2 (10 μM). C-peptide levels were expressed level to protein content and represent […] (n=3). ***p<0.001 relative to NA and **p<0.01 relative to siARX.
Human exocrine fractions were thawed and plated on tissue culture 9 cm^2 dishes (Greiner, Stonehouse, UK) and cultured for two days in RPMI 1640 (Gibco, Life Technologies) supplemented with 10% foetal bovine serum (FBS), 10 mM HEPES, 1 mM sodium pyruvate (all from Gibco) and 75 μM β-mercaptoethanol (Sigma Aldrich). After 48 h, the cells were incubated for another 72 h in serum free medium (SFM) prepared with RPMI 1640, insulin-transferrin-selenium (Gibco) and 1% bovine serum albumin (Sigma), supplemented with 10 μM SB431542, 2 μM Y27632, 1 μM 5-Aza-2′deoxycytidine and 10 mM sodium butyrate (all from Sigma). On the next day the cells were incubated for 4 h with the adenoviruses encoding pancreatic transcription factors PDX1, MAFA, NGN3 and PAX4. On the following day the medium was changed for SFM supplemented with 1 nM betacellulin (R&D systems, Abingdon, UK), 10 nM exendin-4 and 10 mM nicotinamide (both from Sigma). The medium was changed every two days for another 6 days before harvesting. […]

| Structure (SMILES) | gene expression, Ad-KLF4 with vs without Y27632 [1] | insulin gene expression [2] | insulin (C-peptide) protein content [3] |
| --- | --- | --- | --- |
| C[C@@H](N)[C@H]1CC[C@H](C(=O)Nc2ccncc2)CC1 [Y27632] | no significant difference |  |  |
| [Cl-].[Cl-].[Zn+2] [ZnCl2] |  | significant effect | stimulatory effect |
